In ChEMBL document CHEMBL1157537 (J Med Chem, 2008):

Target: T1, Mineralocorticoid receptor (Homo sapiens) (UniProt P08235)
T1 sequence (whole entry): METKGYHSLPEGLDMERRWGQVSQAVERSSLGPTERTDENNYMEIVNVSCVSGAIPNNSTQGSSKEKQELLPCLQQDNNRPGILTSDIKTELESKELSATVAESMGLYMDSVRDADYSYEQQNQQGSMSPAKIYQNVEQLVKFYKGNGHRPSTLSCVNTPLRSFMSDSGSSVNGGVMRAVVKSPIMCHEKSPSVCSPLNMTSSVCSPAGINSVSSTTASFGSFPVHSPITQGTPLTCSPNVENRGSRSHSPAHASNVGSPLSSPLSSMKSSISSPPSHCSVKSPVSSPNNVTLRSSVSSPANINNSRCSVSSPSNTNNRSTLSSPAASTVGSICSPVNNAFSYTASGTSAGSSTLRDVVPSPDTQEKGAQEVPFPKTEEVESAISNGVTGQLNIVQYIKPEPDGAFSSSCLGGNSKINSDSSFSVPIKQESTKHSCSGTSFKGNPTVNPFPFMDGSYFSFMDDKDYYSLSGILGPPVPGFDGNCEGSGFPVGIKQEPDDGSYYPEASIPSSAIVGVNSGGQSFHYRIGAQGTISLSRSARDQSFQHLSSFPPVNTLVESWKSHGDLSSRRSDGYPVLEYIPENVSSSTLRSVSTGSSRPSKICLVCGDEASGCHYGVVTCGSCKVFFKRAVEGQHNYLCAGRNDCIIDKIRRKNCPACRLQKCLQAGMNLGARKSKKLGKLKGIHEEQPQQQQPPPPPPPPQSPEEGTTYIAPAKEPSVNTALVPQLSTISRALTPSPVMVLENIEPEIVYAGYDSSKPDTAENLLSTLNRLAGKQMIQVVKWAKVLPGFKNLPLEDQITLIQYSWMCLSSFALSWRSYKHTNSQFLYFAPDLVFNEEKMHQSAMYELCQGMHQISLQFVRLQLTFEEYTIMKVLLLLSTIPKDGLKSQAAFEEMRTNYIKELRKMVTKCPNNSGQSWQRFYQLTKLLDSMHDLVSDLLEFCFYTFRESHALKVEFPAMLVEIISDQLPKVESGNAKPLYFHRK
Test: Agonist activity at human mineralocorticoid receptor relative to aldosterone
Assay type: functional

Efficacy: 8%
SMILES: CC1=C[C@@H]([C@@H]2Oc3c(F)cc(F)cc3-c3ccc4c(c32)C(C)=CC(C)(C)N4)CCC1 (stereo in doubt; (-)-5c)
